Converted amounts (≈) assume the structure as drawn. Where two headings read alike, the source gives them in different places.
Columns and labels:
[1] = tested on: Phytophthora capsici (Pc); assay: Growth inhibition assay of fungal pathogens, Pc; assay type: cell-based; conditions: 48 h, read-out: Concentration at 90% Inhibition Pc
Experimental: (§1) Compounds of the present invention were evaluated in a growth inhibition assay to determine the ability to control the growth of fungal pathogens, such as Botrtyis cinerea (Bc), Collectotrichum graminicola (Cg), Diplodia maydis (Dm), Fusarium moniliforme (Fm), Fusarium virguliforme (Fv), Phytophthora capsici (Pc), Rhizoctonia solani (Rs), and Septoria tritici (St).
(§2) Compounds to be tested were dissolved in DMSO at 2.5 mg/ml to produce compound stock solutions (“stocks”). Stocks were diluted with DMSO by a five-fold dilution in a 96-well stock plate, and two sets of final concentrations of 50, 10, and 2 ppm or 2, 0.4, and 0.08 ppm were obtained in vitro. A set of positive controls was also prepared, with various concentrations of Soraphen (2, 0.4, and 0.08 ppm), Metalaxyl (1.1, 0.22, and 0.04 ppm), and Metconazole (2, 0.4, and 0.08 ppm or 0.2, 0.04, and 0.008 ppm) after the five-fold dilutions. Negative controls on each plate included 2% DMSO, water, and a blank (media+2% DMSO).
(§3) Fungal spores were isolated from previously sub-cultured plates of Botrtyis cinerea (Bc), Collectotrichum graminicola (Cg), Diplodia maydis (Dm), Fusarium moniliforme (Fm), Fusarium virguliforme (Fv), Phytophthora capsici (Pc), and Septoria tritici (St). The isolated spores were diluted to individual concentrations with a 17% V8 liquid media. For Rhizoctonia solani (Rs) and Pythium irregulare, 1.5 mm mycelial plugs were used in place of spores and/4 Potato Dextrose Broth (PDB) was used for dilution. The spore concentrations and plug sizes were based on growth curves generated at 48 hours for each pathogen.
(§4) In a second 96-well plate, the spores or mycelial plugs, media, diluted compound solutions, and controls were combined. Once the compound was added, a true final concentration of compound in each well was measured by an OD600 reading, which adjusted for any compound precipitation that might have occurred in the well. Plate readings were repeated at both 24 and 48 hours. The blank negative control was used as a background subtraction. Additional visual ratings were performed at both 24 and 48 hours for checking on precipitation and confirming efficacy. Visual and OD600 ratings of the compounds at 48 hours were compared to the 2% DMSO negative control, and the percent of pathogen growth inhibition was determined based on those values.

[2] = tested on: Fusarium virguliforme (Fv); assay: Growth inhibition assay of fungal pathogens, Fv; assay type: cell-based; conditions: 48 h, read-out: Concentration at 90% Inhibition Fv
Experimental: as §1, §2, §3, §4

[3] = tested on: Fusarium moniliforme (Fm); assay: Growth inhibition assay of fungal pathogens, Fm; assay type: cell-based; conditions: Fusarium verticillioides, 48 h, Fusarium moniliforme, read-out: Concentration at 90% Inhibition Fm
Experimental: as §1, §2, §3, §4

fungal (fACC2) = fungal (fACC2) (UniProt Q00955); conditions: read-out: fACC2 (in vitro ACC2 Inhibition Assay, IC50), ADP-Glo, 5 nM ACC2, 20 μM ATP, 20 μM acetyl-CoA
Experimental: An exemplary procedure for the in vitro ACC inhibition assay, which can be used to determine the inhibitory action of compounds of the invention toward either human (hACC2) or fungal (fACC2), follows. The ADP-Glo™ Kinase Assay kit from Promega was used. The ADP-Glo™ Kinase Assay is a luminescent ADP detection assay to measure enzymatic activity by quantifying the amount of ADP produced during an enzyme reaction. The assay is performed in two steps; first, after the enzyme reaction, an equal volume of ADP-Glo™ Reagent is added to terminate the reaction and deplete the remaining ATP. Second, the Kinase Detection Reagent is added to simultaneously convert ADP to ATP and allow the newly synthesized ATP to be measured using a luciferase/luciferin reaction. Luminescence can be correlated to ADP concentrations by using an ATP-to-ADP conversion curve. […] 50 μL of the compound being tested (600 μM in DMSO) was added to a 384-well dilution plate. The compound was diluted 1:3 in succession in DMSO for each row for 11 wells. 0.5 μL ACC2 working solution was added to 384-well white Optiplate assay plate. 0.5 μL diluted compound solution in each column from step 2 was added to assay plate, each row containing 2 replicates. […] The plates were incubated at room temperature for 15 minutes. 5 μL substrate working solution was added to each well to initiate reaction. Final ACC2 reaction concentrations consist of: 5 nM ACC2, 20 μM ATP, 20 μM acetyl-CoA, 12 mM NaHCO3, 0.01% Brij35, 2 mM DTT, 5% DMSO, test compound concentrations: 30 μM, 10 μM, 3.33 μM, 1.11 μM, 0.37 μM, 0.123 μM, 0.0411 μM, 0.0137 μM, 0.00457 μM, 0.00152 μM, and 0.00051 μM. Plates were incubated at room temperature for 60 minutes. 10 μL ADP glo reagent was added. Plates were incubated at room temperature for 40 minutes. 20 μL kinase detection reagent was added. Plates were incubated at room temperature for 40 minutes, and then read on a Perkin Elmer EnVision 2104 plate reader for luminescence as Relative Light Units (RLU).
Data for each concentration, as well as the positive and negative controls were averaged, and the standard deviation calculated. Percent inhibition was calculated by the formula: 100×(average negative control−compound)/(average negative control−average positive control). The IC50 for each compound was calculated by fitting the data with a non-linear regression equation: Y=Bottom+(Top−Bottom)/(1+10 ((Log IC50−X)*HillSlope)), where X is the log of compound concentration and Y is percent inhibition.

Septoria tritici (St) = assay: Growth inhibition assay of fungal pathogens, St; assay type: cell-based; conditions: Zymoseptoria tritici, 48 h, Septoria tritici, read-out: Concentration at 90% Inhibition St
Experimental: as §1, §2, §3, §4

Botrtyis cinerea (Bc) = assay: Growth inhibition assay of fungal pathogens, Bc; assay type: cell-based; conditions: 48 h, Botrtyis cinerea, read-out: Concentration at 90% Inhibition Bc
Experimental: as §1, §2, §3, §4

human (hACC2) = human (hACC2) (Homo sapiens, UniProt O00763); assay: In vitro ACC inhibition assay (ADP-Glo), hACC2; assay type: biochemical; conditions: 5 nM ACC2, 20 μM ATP, 20 μM acetyl-CoA
Experimental: The detailed procedure is as follows. […] 10 μL ADP glo reagent was added. […] 20 μL kinase detection reagent was added.

Rhizoctonia solani (Rs) = assay: Growth inhibition assay of fungal pathogens, Rs; assay type: cell-based; conditions: 48 h, mycelial plugs, read-out: Concentration at 90% Inhibition Rs
C. krusei = assay: Antifungal Activity Assay (broth microtiter MIC), C. krusei; assay type: cell-based, Candida krusei; conditions: Pichia kudriavzevii, ATCC6258, 48 h, ATCC 6258, 3 replicates, MIC recorded at 48 h, read-out: MIC, C. krusei ATCC 6258
Procedure, shortened: (§5)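 Endpoint: lowest concentration visibly inhibiting growth relative to control after 48 h. Inoculum of 2.5×10^3 CFU/mL final in RPMI 1640+MOPS, prepared from overnight 35° C agar cultures; test compounds diluted in water to 128 μg/mL before plating.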

C. albicans = assay: Antifungal Activity Assay (broth microtiter MIC), C. albicans; assay type: cell-based, Candida albicans; conditions: Candida albicans, ATCC90028, 48 h, ATCC 90028, 3 replicates, MIC recorded at 48 h, read-out: MIC, C. albicans ATCC 90028
Procedure, shortened: as §5

Diplodia maydis (Dm) = assay: Growth inhibition assay of fungal pathogens, Dm; assay type: cell-based; conditions: Stenocarpella maydis, 48 h, Diplodia maydis, read-out: Concentration at 90% Inhibition Dm
Experimental: as §1, §2, §3, §4

[4] = tested on: Collectotrichum graminicola (Cg); assay: Growth inhibition assay of fungal pathogens, Cg; assay type: cell-based; conditions: 48 h, Collectotrichum graminicola, read-out: Concentration at 90% Inhibition Cg
Experimental: as §1, §2, §3, §4

C. parapsilosis = assay: Antifungal Activity Assay (broth microtiter MIC), C. parapsilosis; assay type: cell-based, Candida parapsilosis; conditions: Lodderomyces parapsilosis, ATCC22019, 48 h, ATCC 22019, 3 replicates, MIC recorded at 48 h, read-out: MIC, C. parapsilosis ATCC 22019
Procedure, shortened: as §5

[5] = growth inhibition vs 2% DMSO control at 48 hours
[6] = growth inhibition at 48 hours vs 2% DMSO control

fungal (fACC2), sequence (Q00955 whole entry): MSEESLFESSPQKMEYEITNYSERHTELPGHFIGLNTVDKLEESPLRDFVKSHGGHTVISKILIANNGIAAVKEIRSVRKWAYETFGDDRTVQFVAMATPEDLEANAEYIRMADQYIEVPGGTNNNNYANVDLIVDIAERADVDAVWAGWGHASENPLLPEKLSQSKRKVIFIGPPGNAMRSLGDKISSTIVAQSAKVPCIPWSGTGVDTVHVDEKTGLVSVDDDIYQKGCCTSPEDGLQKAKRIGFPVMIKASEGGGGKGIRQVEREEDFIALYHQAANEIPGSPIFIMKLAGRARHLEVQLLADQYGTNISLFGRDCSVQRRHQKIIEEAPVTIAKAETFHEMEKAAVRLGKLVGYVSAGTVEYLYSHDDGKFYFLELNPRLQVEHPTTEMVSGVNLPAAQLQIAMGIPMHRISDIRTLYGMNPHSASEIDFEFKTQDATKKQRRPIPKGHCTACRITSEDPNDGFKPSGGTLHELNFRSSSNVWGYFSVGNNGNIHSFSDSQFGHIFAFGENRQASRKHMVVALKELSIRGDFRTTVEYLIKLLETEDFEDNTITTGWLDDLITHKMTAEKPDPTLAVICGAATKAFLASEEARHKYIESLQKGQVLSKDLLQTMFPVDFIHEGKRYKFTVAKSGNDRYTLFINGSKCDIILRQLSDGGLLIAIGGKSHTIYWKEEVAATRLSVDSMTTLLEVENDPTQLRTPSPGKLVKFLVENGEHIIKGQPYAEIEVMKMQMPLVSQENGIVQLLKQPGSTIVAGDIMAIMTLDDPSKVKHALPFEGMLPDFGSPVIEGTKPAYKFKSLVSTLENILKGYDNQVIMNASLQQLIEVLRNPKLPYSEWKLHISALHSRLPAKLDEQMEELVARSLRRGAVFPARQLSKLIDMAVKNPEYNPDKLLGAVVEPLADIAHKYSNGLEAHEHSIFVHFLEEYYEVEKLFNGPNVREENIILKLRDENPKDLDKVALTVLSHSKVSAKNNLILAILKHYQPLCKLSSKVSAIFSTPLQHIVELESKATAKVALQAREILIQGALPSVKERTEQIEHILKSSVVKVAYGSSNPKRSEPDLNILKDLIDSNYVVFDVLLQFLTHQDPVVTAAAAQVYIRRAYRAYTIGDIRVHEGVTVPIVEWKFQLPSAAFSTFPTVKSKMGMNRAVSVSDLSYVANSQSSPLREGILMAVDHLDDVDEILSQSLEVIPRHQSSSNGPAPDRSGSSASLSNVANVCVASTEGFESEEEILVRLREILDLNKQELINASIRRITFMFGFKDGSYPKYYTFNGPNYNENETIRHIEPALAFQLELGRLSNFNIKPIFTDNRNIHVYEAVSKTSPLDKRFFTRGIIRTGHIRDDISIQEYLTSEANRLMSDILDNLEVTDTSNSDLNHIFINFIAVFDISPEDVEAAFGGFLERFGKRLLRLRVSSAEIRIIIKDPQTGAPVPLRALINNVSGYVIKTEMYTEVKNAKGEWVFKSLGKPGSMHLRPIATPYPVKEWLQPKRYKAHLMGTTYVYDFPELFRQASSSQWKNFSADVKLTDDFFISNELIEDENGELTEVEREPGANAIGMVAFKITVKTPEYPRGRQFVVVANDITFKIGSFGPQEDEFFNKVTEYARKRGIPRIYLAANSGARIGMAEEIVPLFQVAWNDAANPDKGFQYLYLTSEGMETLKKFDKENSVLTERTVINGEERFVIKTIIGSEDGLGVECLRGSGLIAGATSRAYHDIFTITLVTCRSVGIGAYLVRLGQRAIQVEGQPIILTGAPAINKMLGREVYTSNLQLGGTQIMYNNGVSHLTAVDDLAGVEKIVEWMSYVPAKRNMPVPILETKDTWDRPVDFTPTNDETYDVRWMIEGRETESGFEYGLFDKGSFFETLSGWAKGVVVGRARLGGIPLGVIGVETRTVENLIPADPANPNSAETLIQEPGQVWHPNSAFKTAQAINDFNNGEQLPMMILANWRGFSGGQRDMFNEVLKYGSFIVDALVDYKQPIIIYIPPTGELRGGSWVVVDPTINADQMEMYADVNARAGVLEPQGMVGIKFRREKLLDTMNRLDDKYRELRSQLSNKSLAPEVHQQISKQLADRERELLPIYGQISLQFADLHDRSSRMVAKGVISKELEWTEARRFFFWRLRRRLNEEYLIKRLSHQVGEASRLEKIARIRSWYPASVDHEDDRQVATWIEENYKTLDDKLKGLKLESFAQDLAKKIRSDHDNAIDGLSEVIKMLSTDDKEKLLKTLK
human (hACC2), sequence (O00763 whole entry): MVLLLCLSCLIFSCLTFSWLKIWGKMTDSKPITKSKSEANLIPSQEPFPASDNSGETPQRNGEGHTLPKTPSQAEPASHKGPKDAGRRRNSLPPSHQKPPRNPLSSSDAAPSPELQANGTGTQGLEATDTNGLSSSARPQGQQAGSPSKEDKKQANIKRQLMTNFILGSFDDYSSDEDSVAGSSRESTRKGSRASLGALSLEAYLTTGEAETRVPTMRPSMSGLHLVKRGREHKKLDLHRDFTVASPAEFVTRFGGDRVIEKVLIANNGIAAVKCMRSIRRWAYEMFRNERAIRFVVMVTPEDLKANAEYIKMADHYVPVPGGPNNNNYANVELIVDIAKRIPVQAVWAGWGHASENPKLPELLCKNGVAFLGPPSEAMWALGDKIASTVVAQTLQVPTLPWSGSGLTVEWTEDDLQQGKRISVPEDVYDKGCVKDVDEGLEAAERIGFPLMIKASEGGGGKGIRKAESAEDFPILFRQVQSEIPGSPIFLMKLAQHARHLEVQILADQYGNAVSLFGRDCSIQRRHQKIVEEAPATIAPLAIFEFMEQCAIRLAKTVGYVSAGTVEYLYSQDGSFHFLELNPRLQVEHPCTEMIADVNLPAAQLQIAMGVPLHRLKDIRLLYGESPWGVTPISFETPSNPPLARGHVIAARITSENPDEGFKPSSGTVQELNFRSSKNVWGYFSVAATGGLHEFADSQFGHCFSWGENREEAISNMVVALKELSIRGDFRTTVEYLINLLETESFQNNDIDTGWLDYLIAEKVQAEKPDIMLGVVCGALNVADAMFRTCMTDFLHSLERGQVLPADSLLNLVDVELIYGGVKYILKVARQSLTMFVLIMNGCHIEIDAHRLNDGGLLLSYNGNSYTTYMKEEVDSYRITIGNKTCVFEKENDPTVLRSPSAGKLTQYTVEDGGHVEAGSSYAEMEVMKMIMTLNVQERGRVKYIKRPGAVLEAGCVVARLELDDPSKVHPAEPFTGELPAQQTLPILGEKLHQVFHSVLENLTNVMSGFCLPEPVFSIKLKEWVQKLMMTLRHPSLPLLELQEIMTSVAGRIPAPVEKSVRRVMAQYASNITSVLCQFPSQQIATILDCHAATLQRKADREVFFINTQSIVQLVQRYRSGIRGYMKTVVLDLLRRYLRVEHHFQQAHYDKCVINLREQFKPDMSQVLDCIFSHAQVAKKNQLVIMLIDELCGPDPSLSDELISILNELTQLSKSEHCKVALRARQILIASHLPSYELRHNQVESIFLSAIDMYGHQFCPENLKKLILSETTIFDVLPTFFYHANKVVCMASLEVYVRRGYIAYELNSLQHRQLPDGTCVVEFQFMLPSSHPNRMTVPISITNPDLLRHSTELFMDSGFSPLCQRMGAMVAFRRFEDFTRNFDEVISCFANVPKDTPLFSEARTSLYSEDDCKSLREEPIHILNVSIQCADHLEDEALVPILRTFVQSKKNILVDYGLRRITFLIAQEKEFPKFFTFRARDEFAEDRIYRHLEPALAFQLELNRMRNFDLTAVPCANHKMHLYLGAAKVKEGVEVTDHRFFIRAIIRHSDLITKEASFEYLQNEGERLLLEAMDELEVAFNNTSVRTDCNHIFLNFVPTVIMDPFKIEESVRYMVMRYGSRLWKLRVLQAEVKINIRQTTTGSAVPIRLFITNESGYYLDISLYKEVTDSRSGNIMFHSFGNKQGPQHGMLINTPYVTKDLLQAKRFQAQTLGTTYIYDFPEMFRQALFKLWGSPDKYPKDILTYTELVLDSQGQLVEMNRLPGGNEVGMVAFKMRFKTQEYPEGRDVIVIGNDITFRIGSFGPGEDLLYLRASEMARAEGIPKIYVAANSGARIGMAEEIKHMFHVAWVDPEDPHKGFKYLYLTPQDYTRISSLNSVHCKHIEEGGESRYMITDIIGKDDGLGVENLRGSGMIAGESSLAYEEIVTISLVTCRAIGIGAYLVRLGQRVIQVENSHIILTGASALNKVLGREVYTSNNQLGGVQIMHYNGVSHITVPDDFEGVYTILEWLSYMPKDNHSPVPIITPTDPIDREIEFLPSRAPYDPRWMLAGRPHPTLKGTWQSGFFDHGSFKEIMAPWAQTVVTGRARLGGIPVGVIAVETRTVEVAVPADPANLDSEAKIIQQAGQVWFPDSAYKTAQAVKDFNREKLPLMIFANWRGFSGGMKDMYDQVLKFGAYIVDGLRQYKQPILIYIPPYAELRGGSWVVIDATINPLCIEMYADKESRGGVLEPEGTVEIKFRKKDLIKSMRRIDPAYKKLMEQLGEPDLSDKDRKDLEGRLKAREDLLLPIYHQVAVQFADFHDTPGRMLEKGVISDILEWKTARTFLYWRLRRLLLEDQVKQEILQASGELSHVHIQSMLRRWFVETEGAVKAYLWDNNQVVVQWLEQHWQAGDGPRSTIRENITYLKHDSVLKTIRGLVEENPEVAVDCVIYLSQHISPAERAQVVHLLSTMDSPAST

Compound: COCCO[C@@H](Cn1c(=O)n([C@H](C)C(=O)NC(C)C)c(=O)c2c(C)c(-n3nccn3)sc21)c1cc(F)ccc1OC [Compound I-67, (R)-2-(1-((R)-2-(5-fluoro-2-methoxyphenyl)-2-(2-methoxy-ethoxy)ethyl)-5-methyl-2,4-dioxo-6-(2H-1,2,3-triazol-2-yl)-1,4-dihydrothieno[2,3-d]pyrimidin-3(2H)-yl)-N-isopropylpropanamide]
- IC90 [1, 5]: > 50 µg/mL
- IC90 [2, 5]: 0.4 µg/mL (≈ 0.68 µM)
- IC90 [3, 5]: 0.08 µg/mL (≈ 0.136 µM)
- IC50 (fungal (fACC2); Table 2a): 1 to 5 nM
- IC50 (fungal (fACC2); Table 2b, additional results): 1 to 5 nM
- IC90 (Septoria tritici (St); [5]): 10 µg/mL (≈ 17 µM)
- IC90 (Botrtyis cinerea (Bc); [5]): 0.08 µg/mL (≈ 0.136 µM)
- IC50 (human (hACC2); Table 2a): 5 to 10 nM
- IC50 (human (hACC2); Table 2b, additional results): 5 to 10 nM
- IC90 (Rhizoctonia solani (Rs); [5]): 0.08 µg/mL (≈ 0.136 µM)
- MIC (C. krusei; Table 3a): 0.25 to 1 µg/mL (≈ 0.425 to 1.7 µM)
- MIC (C. krusei; Table 3b (additional results)): 2.01 to 4 µg/mL (≈ 3.41 to 6.8 µM)
- MIC (C. albicans; Table 3a): 1.1 to 2 µg/mL (≈ 1.87 to 3.4 µM)
- MIC (C. albicans; Table 3b (additional results)): > 4.01 µg/mL
- IC90 (Diplodia maydis (Dm); [5]): 0.08 µg/mL (≈ 0.136 µM)
- IC90 [4, 5]: 0.08 µg/mL (≈ 0.136 µM)
- MIC (C. parapsilosis; Table 3a): 1.1 to 2 µg/mL (≈ 1.87 to 3.4 µM)
- MIC (C. parapsilosis; Table 3b (additional results)): 1.01 to 2 µg/mL (≈ 1.72 to 3.4 µM)

Compound: CCOC(=O)C(C)(C)n1c(=O)c2c(C)c(-n3nccn3)sc2n(C[C@H](OCCO)c2cc(F)ccc2OC)c1=O [Compound I-74, Ethyl (R)-2-(1-(2-(5-fluoro-2-methoxyphenyl)-2-(2-hydroxyethoxy)ethyl)-5-methyl-2,4-dioxo-6-(2H-1,2,3-triazol-2-yl)-1,4-dihydro-thieno[2,3-d]pyrimidin-3(2H)-yl)-2-methylpropanoate]
- IC90 [1, 6]: > 50 µg/mL
- IC90 [2, 6]: 0.4 µg/mL (≈ 0.695 µM)
- IC90 [3, 6]: 0.08 µg/mL (≈ 0.139 µM)
- IC50 (fungal (fACC2); Table 2a): 1 to 5 nM
- IC50 (fungal (fACC2); Table 2b, additional results): 1 to 5 nM
- IC90 (Septoria tritici (St); [6]): 10 µg/mL (≈ 17.4 µM)
- IC90 (Botrtyis cinerea (Bc); [6]): 0.08 µg/mL (≈ 0.139 µM)
- IC50 (human (hACC2); Table 2a): 5 to 10 nM
- IC50 (human (hACC2); Table 2b, additional results): 5 to 10 nM
- IC90 (Rhizoctonia solani (Rs); [6]): 0.08 µg/mL (≈ 0.139 µM)
- MIC (C. krusei; Table 3a): 0.25 to 1 µg/mL (≈ 0.434 to 1.74 µM)
- MIC (C. krusei; Table 3b (additional results)): 1.01 to 2 µg/mL (≈ 1.75 to 3.47 µM)
- MIC (C. albicans; Table 3a): 2.1 to 4 µg/mL (≈ 3.65 to 6.95 µM)
- MIC (C. albicans; Table 3b (additional results)): 2.01 to 4 µg/mL (≈ 3.49 to 6.95 µM)
- IC90 (Diplodia maydis (Dm); [6]): 0.4 µg/mL (≈ 0.695 µM)
- IC90 [4, 6]: 0.4 µg/mL (≈ 0.695 µM)
- MIC (C. parapsilosis; Table 3a): 2.1 to 4 µg/mL (≈ 3.65 to 6.95 µM)
- MIC (C. parapsilosis; Table 3b (additional results)): 2.01 to 4 µg/mL (≈ 3.49 to 6.95 µM)

Compound: CCc1ccc(F)cc1[C@H](Cn1c(=O)n(C(C)(C)C(=O)NC(C)C)c(=O)c2c(C)c(-n3nccn3)sc21)OCCO [Compound I-124]
- IC90 [1, 6]: 10 µg/mL (≈ 17 µM)
- IC90 [2, 6]: 0.08 µg/mL (≈ 0.136 µM)
- IC90 [3, 6]: 0.08 µg/mL (≈ 0.136 µM)
- IC50 (fungal (fACC2); Table 2a): 0.4 to 1 nM
- IC50 (fungal (fACC2); Table 2b, additional results): 0.3 to 1 nM
- IC90 (Septoria tritici (St); [6]): 2 µg/mL (≈ 3.41 µM)
- IC90 (Botrtyis cinerea (Bc); [6]): 0.4 µg/mL (≈ 0.682 µM)
- IC50 (human (hACC2); Table 2a): 1 to 5 nM
- IC50 (human (hACC2); Table 2b, additional results): 1 to 5 nM
- IC90 (Rhizoctonia solani (Rs); [6]): 0.08 µg/mL (≈ 0.136 µM)
- MIC (C. krusei; Table 3a): 0.06 to 0.24 µg/mL (≈ 0.102 to 0.409 µM)
- MIC (C. krusei; Table 3b (additional results)): 2.01 to 4 µg/mL (≈ 3.43 to 6.82 µM)
- MIC (C. albicans; Table 3a): 0.25 to 1 µg/mL (≈ 0.426 to 1.7 µM)
- MIC (C. albicans; Table 3b (additional results)): 2.01 to 4 µg/mL (≈ 3.43 to 6.82 µM)
- IC90 (Diplodia maydis (Dm); [6]): 0.4 µg/mL (≈ 0.682 µM)
- IC90 [4, 6]: 0.08 µg/mL (≈ 0.136 µM)
- MIC (C. parapsilosis; Table 3a): 0.25 to 1 µg/mL (≈ 0.426 to 1.7 µM)
- MIC (C. parapsilosis; Table 3b (additional results)): 2.01 to 4 µg/mL (≈ 3.43 to 6.82 µM)

Compound: CCc1ccc(F)cc1[C@H](Cn1c(=O)n(C(C)(C)C(=O)NC(C)C)c(=O)c2c(C)c(-n3nccn3)sc21)OCCOC [Compound I-126]
- IC90 [1, 6]: > 50 µg/mL
- IC90 [2, 6]: 0.4 µg/mL (≈ 0.666 µM)
- IC90 [3, 6]: 0.08 µg/mL (≈ 0.133 µM)
- IC50 (fungal (fACC2); Table 2a): 1 to 5 nM
- IC50 (fungal (fACC2); Table 2b, additional results): 1 to 5 nM
- IC90 (Septoria tritici (St); [6]): 10 µg/mL (≈ 16.6 µM)
- IC90 (Botrtyis cinerea (Bc); [6]): 0.4 µg/mL (≈ 0.666 µM)
- IC50 (human (hACC2); Table 2a): 5 to 10 nM
- IC50 (human (hACC2); Table 2b, additional results): 5 to 10 nM
- IC90 (Rhizoctonia solani (Rs); [6]): 2 µg/mL (≈ 3.33 µM)
- MIC (C. krusei; Table 3a): 0.25 to 1 µg/mL (≈ 0.416 to 1.66 µM)
- MIC (C. krusei; Table 3b (additional results)): > 4.01 µg/mL
- MIC (C. albicans; Table 3a): 1.1 to 2 µg/mL (≈ 1.83 to 3.33 µM)
- MIC (C. albicans; Table 3b (additional results)): > 4.01 µg/mL
- IC90 (Diplodia maydis (Dm); [6]): 2 µg/mL (≈ 3.33 µM)
- IC90 [4, 6]: 0.4 µg/mL (≈ 0.666 µM)
- MIC (C. parapsilosis; Table 3a): 1.1 to 2 µg/mL (≈ 1.83 to 3.33 µM)
- MIC (C. parapsilosis; Table 3b (additional results)): 2.01 to 4 µg/mL (≈ 3.35 to 6.66 µM)
